Results from PubChem BioAssay (NCI).
“And” between values parts separate entries of the source, which are not always exact repeats. Equal entries are not always repeated.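 The compound was tested at five concentrations on cells cultured in 96-well plates, with a 48-hour exposure period. Here, GI50 denotes the concentration required for 50% inhibition of growth. At the TGI there is no net growth.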

Assays:
Test in all cases: NCI anticancer screen, dose series, 48 h
[1] = tested on: MOLT-4 leukemia
[2] = tested on: EKVX NSCLC
[3] = tested on: 786-0 renal
[4] = tested on: SF-539 CNS
[5] = tested on: IGROV1 ovarian
[6] = tested on: K-562 leukemia
[7] = tested on: UACC-257 melanoma
[8] = tested on: NCI-H522 lung
[9] = tested on: COLO 205 colon
[10] = tested on: CAKI-1 renal

Structure (SMILES)	TGI [1]	TGI [2]	TGI [3]	TGI [4]	TGI [5]	TGI [6]	TGI [7]	TGI [8]	TGI [9]	TGI [10]	GI50 [1]	GI50 [2]	GI50 [3]	GI50 [4]	GI50 [5]	GI50 [6]	GI50 [7]	GI50 [8]	GI50 [9]	GI50 [10]
CCOC(=O)C(=O)Nc1nc2c(s1)C(=O)c1ccccc1C2=O	18.9 µM	29.6 µM	31.2 µM	31.5 µM	37.6 µM	33.3 µM	31.4 µM	29.3 µM	56.4 µM	33.5 µM	–	–	–	–	–	–	–	–	–	–
O=C1CC(O)C=C1Nc1ccc(Cl)cc1 (stereo not given)	> 100 µM	60.8 µM	> 100 µM	> 100 µM	> 100 µM	> 100 µM	> 100 µM	48.4 µM	22.3 µM	> 100 µM	–	–	–	–	–	–	–	–	–	–
COc1ccc(-c2nn3ncccc3c2-c2ccnc(Nc3ccc(Cl)c(C(F)(F)F)c3)n2)cc1	> 25 µM	> 25 µM	> 25 µM	> 25 µM	> 25 µM	> 25 µM	> 25 µM	> 25 µM	> 25 µM	> 25 µM	10.9 µM	7.84 µM	11 µM	> 18.9 µM	9.48 µM	10.8 µM	11.5 µM	12.4 µM	12.7 µM	12.4 µM
Cc1cnc2c(C)ccc([N+](=O)[O-])c2c1NCCCN(C)C	> 100 µM	> 100 µM	> 100 µM	> 100 µM	> 100 µM	> 100 µM	> 100 µM	> 100 µM	> 100 µM	> 100 µM	–	–	–	–	–	–	–	–	–	–
CCc1cccc(C(C)C)c1NC(=O)C(=O)C(Cc1nc2ccccc2[nH]c1=O)C(=O)OC (stereo not given)	> 100 µM	> 100 µM	> 100 µM	> 100 µM	> 100 µM	> 100 µM	> 100 µM	> 100 µM	> 100 µM	> 100 µM	–	–	–	–	–	–	–	–	–	–
C=C1C(=O)O[C@H]2[C@H]1CC/C(COC(=O)c1cc3cc(F)ccc3[nH]1)=C\CC[C@@]1(C)O[C@@H]21	9.23 µM	3.71 µM	3.75 µM	3.19 µM	3.14 µM	12.1 µM	4.26 µM	3.38 µM	3.37 µM	2.62 µM	2.26 µM	1.58 µM	1.78 µM	1.55 µM	1.44 µM	2.24 µM	2.28 µM	1.66 µM	1.64 µM	1.2 µM
ClCc1cccc(Cn2cnc3c(Cl)ncnc32)c1	37.4 µM	34.1 µM	19.7 µM	35.3 µM	33.5 µM	15.2 µM	37.1 µM	65.4 µM	10.5 µM	2.93 µM	15.8 µM	18.6 µM	6.17 µM	20.1 µM	9.31 µM	3.56 µM	20.2 µM	18.6 µM	3.09 µM	1.53 µM
CNc1ccc2nc3ccc(=[N+](C)C)cc-3sc2c1	12.1 µM and 9.36 µM	23.4 µM and 14.5 µM	17.6 µM and 16 µM	2.65 µM and 1.73 µM	10.5 µM and 4.06 µM	14.1 µM and 47.4 µM	4.52 µM and 1.91 µM	1.33 µM and 3.79 µM	3.03 µM and 1.44 µM	9.17 µM and 6.02 µM	0.637 µM and 0.667 µM	4.63 µM and 0.518 µM	3.84 µM and 1.27 µM	0.383 µM and 0.278 µM	2.36 µM and 1.28 µM	0.513 µM and 0.756 µM	0.962 µM and 0.331 µM	0.291 µM and 0.465 µM	0.626 µM and 0.365 µM	1.28 µM and 1.4 µM
COc1nc(N(C)O)nc(N(C)O)n1	> 100 µM	> 100 µM	33.2 µM	9.69 µM	> 100 µM	> 100 µM	> 100 µM	> 100 µM	> 100 µM	17.3 µM	0.885 µM	1.56 µM	3.74 µM	1.26 µM	0.632 µM	2.94 µM	3.52 µM	2.53 µM	1.24 µM	0.491 µM
COc1cccc(C2CC(C)(N3CCCC3)Oc3cc4c(cc32)OCO4)c1O (stereo not given)	> 73.4 µM	> 100 µM	> 100 µM	46.1 µM	99.2 µM	41.9 µM	> 100 µM	47.2 µM	39.7 µM	> 100 µM	–	–	–	–	–	–	–	–	–	–
C=C1CC2(OC1=O)C(=O)N(CCCCCCCN1C(=O)C3(CC(=C)C(=O)O3)c3ccccc31)c1ccccc12 (stereo not given)	5.53 µM	19.3 µM	5.42 µM	4.27 µM	2.29 µM	6.06 µM	8.76 µM	1.85 µM	5.58 µM	5.96 µM	0.267 µM	9.35 µM	1.49 µM	1.26 µM	0.966 µM	0.953 µM	2.14 µM	0.82 µM	1.38 µM	1.4 µM
